Assay results as given in patent publication US8765675B2, “Use of calcitonin in osteoarthritis” (Novartis AG, priority 2003, dated 2014).
Where no end group is shown, it is not given here.

Tests used:
[1] = Water solubility of delivery agent
[2] = test system: urinary collagen type II degradation products (CTX-II); test: 3-month oral sCT treatment, 24 hours urinary CTX-II corrected for creatinine; format: in vivo, human
Method: (§1) Women receive treatment with either daily (0.15, 0.4, 1.0, or 2.5 mg) orally dosed sCT (see below for pharmaceutical compositions) combined with eligen technology-based carrier molecule (200 mg), or placebo for 3 months. All participants receive a calcium supplement of 1000 mg plus 400 IU of vitamin D daily throughout the study. Efficacy parameters are 24 hours urinary C-terminal telopeptide of collagen type I (CTX-I) and CTX-II corrected for creatinine excretion assessed at baseline and after 3-month therapy.
(§2) C-telopeptide of type I collagen (CTX I) is considered to be a specific marker sensitive to bone resorption; conversely, type II collagen C-telopeptide (CTX-II) is considered to be a useful cartilage marker.

[3] = test system: urinary C-terminal telopeptide of collagen type I (CTX-I); test: 3-month oral sCT treatment, 24 hours urinary CTX-I corrected for creatinine; format: in vivo, human; conditions: 1.0 mg sCT daily oral, 3-month treatment, compared to placebo group, p<0.001
Method: as §1, §2

[4] = in vivo
[5] = test system: animal epiphyseal cartilage, rabbit and human cartilage; conditions: in vitro; cited from earlier work
cartilage = conditions: cited from earlier work

In the case of `O=C(O)CCCCCCCNC(=O)c1cc(Cl)ccc1O` [5 CNAC, N-(5-chlorosalicyloyl)-8-aminocaprylic acid], the water solubility [1] is reported as “very water soluble”.

With salmon calcitonin [sCT] the “decrease in urinary CTX-II after 3-month treatment” value (“decrease in urinary CTX-II” for short) ([2]; 0.4 mg sCT daily oral, postmenopausal women, compared to placebo, p=0.04) was −15.2%, the “decrease in urinary CTX-II” value ([2]; 1.0 mg sCT daily oral, postmenopausal women, compared to placebo, p=0.009) was −19.7% and the “decrease in urinary CTX-II” value ([2]; 1.0 mg sCT, women in the highest tertile of baseline urinary CTX-II) was −36.6%. The “decrease in urinary CTX-II” value ([2]; 1.0 mg sCT, women in the lowest tertile of baseline urinary CTX-II) was −9.9%, the “decrease in urinary CTX-II” value ([2]; 2.5 mg sCT daily oral, postmenopausal women, compared to placebo, p=0.02) was −17.5% and the “24 hours urinary CTX-II response to oral sCT, dose relationship” value ([2]; 0.15, 0.4, 1.0, 2.5 mg daily, 3 months, ANOVA=0.012) was “clear and significant dose dependent relationship”. For the same compound, the “reduction in 24-hours urinary CTX-I” value [3] was −41.0%.

In the case of `O=C(O)CCCCCCCCCNC(=O)c1ccccc1O` [SNAD, N-(10-[2-hydroxybenzoyl]amino)decanoic acid], the “absorbed by the gastro-intestinal tract” value [4] is reported as “more than 90%”.

In the case of “calcitonin (CGNLSTCMLGTYTQDFNKFHTFPQTAIGVGAP; ends and bridges not checked; cysteine pairing not given here; UniProt P01258 85-116, looked up) [origin not specified in cited studies]”, the “effect on proteoglycan and collagen synthesis in cartilage” value [5] is given as “stimulate proteoglycan and collagen synthesis”, the effect on cartilage (cartilage; another menisectomy model (Colombo 1983)) is given as “no effect on cartilage” and the “effect on cartilage destruction” value (cartilage; rabbits treated with steroids, partial menisectomy or joint immobilization (Badurski 1991)) is given as “prevent cartilage destruction”.
